This is an account of results in patent publication US9617283B2, “Bicyclic heterocycle compounds and their uses in therapy” (ASTEX THERAPEUTICS LIMITED, priority 2012, dated 2017).

Counter-ions that a name gives are not always drawn. Like-named read-outs stand apart in the source and are kept apart here.

The test system of test [1] is EVSA-T (human breast carcinoma). Nature of the test: Anti-proliferative activity, Alamar Blue assay, EVSA-T. The test is classed as cell-based. On the technique in general: Alamar Blue is a resazurin reagent that responds to reducing activity.
Test [2] concerns the target T1, BIR3 domain of human cIAP-1 (residues 267-363) (Homo sapiens, UniProt Q13490).
T1 construct: human cIAP-1 (residues 267-363) fused to a GST-tag; GST-tag (cleaved yes); made in house; host or cells: Escherichia coli
Nature of the test: cIAP-1 in vitro competitive displacement binding assay (fluorescence polarization).

Test [3] concerns the target T2, BIR3 domain of human XIAP (residues 252-350) (Homo sapiens, UniProt P98170).
T2 construct: BIR3 domain of human XIAP (residues 252-350); His-tag (cleaved yes); made in house; host or cells: Escherichia coli
The test can be described thus: XIAP in vitro competitive displacement binding assay (fluorescence polarization). The settings on record: percent inhibition (PI) at 0.04 μM; for Xiap IC50 or PI μM: 60 min, dihydrochloride, 0.04 µM; for inhibition at 0.04 µM: 1 h, read-out: Xiap IC50 or PI μM. A general note: Polarisation of emitted light reports the rotation of a fluorescent probe.

Where [4] appears, read: EVSA-T cell line, 72 hours, Alamar Blue, dihydrochloride, read-out: EVSA-T prolif.
Setting [5] is: Homo sapiens, EVSA-T, read-out: EC50 in EVSA-T cell line assays.
Where [6] appears, read: Homo sapiens, EVSA-T, 72 h, EVSA-T cell line, 72 hours, Alamar Blue, read-out: EVSA-T prolif.

T2 sequence (P98170 252-350): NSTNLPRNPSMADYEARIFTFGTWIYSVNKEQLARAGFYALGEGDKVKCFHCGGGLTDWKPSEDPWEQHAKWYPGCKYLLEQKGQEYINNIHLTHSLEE
T1 sequence (Q13490 267-363): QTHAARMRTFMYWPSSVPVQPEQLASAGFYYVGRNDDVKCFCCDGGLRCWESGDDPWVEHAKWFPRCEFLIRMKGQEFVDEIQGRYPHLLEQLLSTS

`CCC1CN(C[C@H]2CN[C@H](C)CN2CC(=O)N2CC(C)(C)c3ncc([C@@H](O)c4ccc(F)cc4)cc32)C(=O)CO1` (single isomer, unassigned) [Example 111, (R or S)-6-ethyl-4-{[(2R,5R)-1-(2-{6-[(S)-(4-Fluorophenyl)(hydroxy)methyl]-3,3-dimethyl-1H,2H,3H-pyrrolo[3,2-b]pyridin-1-yl}-2-oxoethyl)-5-methylpiperazin-2-yl]methyl}morpholin-3-one dihydrochloride]: the EC50 in test [1] (setting [4]) is 0.077 µM; in test [1] (setting [5]) it was under 1 µM. The “cIAP1 IC50 or PI μM” value in test [2] (percent inhibition (PI) at […], 180 min, dihydrochloride, […]) is reported as 62%@0.012. Also, the “Xiap IC50 or PI μM” value in test [3] is given as 68%@0.04.

As to `CCCC(O)c1cnc2c(c1)N(C(=O)CN1C[C@@H](C)NC[C@@H]1CN1Cc3ccccc3C1=O)CC2(C)C` (single isomer, unassigned) [Example 91, dihydrochloride], the EC50 in test [1] (setting [4]) was 0.33 µM. In addition, the inhibition at 0.04 µM in test [2] (3 h, percent inhibition (PI) at 0.04 μM, read-out: cIAP1 IC50 or PI μM) was 53%. For the same molecule, in test [3], the “Xiap IC50 or PI μM” value was 40%@0.04.

As to `CCCC(F)(F)c1cc2c(cn1)C(C)(C)CN2C(=O)CN1C[C@@H](C)NC[C@@H]1CN1Cc2ccncc2C1=O` [Example 78, 2-{[(2R,5R)-1-{2-[6-(1,1-Difluorobutyl)-3,3-dimethyl-1H,2H,3H-pyrrolo[3,2-c]pyridin-1-yl]-2-oxoethyl}-5-methylpiperazin-2-yl]methyl}-1H,2H,3H-pyrrolo[3,4-c]pyridin-3-one dihydrochloride], the results for the EC50 in test [1] (setting [6]) and in test [1] (setting [5]) were 0.0034 µM and under 1 µM, respectively. Besides, the inhibition at 0.04 µM in test [3] amounted to 64%.

As to `CCC1CN(C[C@H]2CN[C@H](C)CN2CC(=O)N2CC(C)(C)c3cnc(Cc4ccc(F)cc4F)cc32)C(=O)CO1` (single isomer, unassigned) [Example 80, 4-{[(2R,5R)-1-(2-{6-[(2,4-Difluorophenyl)methyl]-3,3-dimethyl-1H,2H,3H-pyrrolo[3,2-c]pyridin-1-yl}-2-oxoethyl)-5-methylpiperazin-2-yl]methyl}-(R or S)-6-ethylmorpholin-3-one dihydrochloride], the EC50 was 0.0018 µM in test [1] (setting [6]) and under 1 µM in test [1] (setting [5]). In addition, the inhibition at 0.04 µM in test [3] stood at 46%.

For the molecule `CC1=C(C)C(=O)N(C[C@H]2CN[C@H](C)CN2CC(=O)N2CC(C)(C)c3nnc(Cc4ccc(F)cc4F)cc32)C1` [Example 50, 1-{[(2R,5R)-1-(2-{3-[(2,4-Difluorophenyl)methyl]-7,7-dimethyl-5H,6H,7H-pyrrolo[3,2-c]pyridazin-5-yl}-2-oxoethyl)-5-methylpiperazin-2-yl]methyl}-3,4-dimethyl-2,5-dihydro-1H-pyrrol-2-one L-lactate], the EC50 in test [1] (setting [6]) was 0.0012 µM; in test [1] (setting [5]), under 1 µM. The inhibition at 0.04 µM in test [3] came out at 66%.
